Experimental data taken from patent publication US9302999B2, “Substituted triazoles as herbicides” (E. I. DU PONT DE NEMOURS AND COMPANY, priority 2012, dated 2016).

What was measured:
Format in all cases: in vivo
[1] = tested on: velvetleaf (Abutilon theophrasti); assay: Test A pre-/postemergence: velvetleaf; details: for Velvetleaf plant response rating: Postemergence; for Plant response rating, Velvetleaf: Preemergence
Outline: (§1)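 Plants in loam–sand blend were treated with test chemicals in non-phytotoxic solvent with surfactant, either as preemergence directed soil spray or postemergence at 2–10 cm, one- to two-leaf stage. After about ten days in greenhouse, injury was rated visually against untreated controls on a 0–100 scale (100 = complete control).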

[2] = tested on: crabgrass, large (large crabgrass, Digitaria sanguinalis); assay: Test A pre-/postemergence: crabgrass, large; details: for Crabgrass, Large plant response rating: Postemergence; for Plant response rating, Crabgrass, Large: Preemergence
Outline: as §1

[3] = tested on: morningglory (Ipomoea spp.); assay: Test A pre-/postemergence: morningglory; details: for Morningglory plant response rating: Postemergence; for Plant response rating, Morningglory: Preemergence
Outline: as §1

[4] = tested on: barnyardgrass (Echinochloa crus-galli); assay: Test C flooded paddy test: barnyardgrass; details: scale 0 to 100 (0 no effect, 100 complete control)
Outline: (§2)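 2-leaf stage plants; pots flooded 3 cm above soil; compound applied into paddy water, depth maintained. Greenhouse 13–15 d. Visual rating vs controls, 0–100 (0 = no effect, 100 = complete control); dash = no result.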

[5] = tested on: wheat (Triticum aestivum); assay: Test A pre-/postemergence: wheat; details: for Wheat plant response rating: Postemergence; for Plant response rating, Wheat: Preemergence
Outline: as §1

[6] = tested on: pigweed (Amaranthus retroflexus); assay: Test A pre-/postemergence: pigweed; details: for Pigweed plant response rating: Postemergence; for Plant response rating, Pigweed: Preemergence
Outline: as §1

[7] = tested on: ducksalad (Heteranthera limosa); assay: Test C flooded paddy test: ducksalad; details: scale 0 to 100 (0 no effect, 100 complete control)
Outline: as §2

[8] = tested on: corn (Zea mays); assay: Test A pre-/postemergence: corn; details: for Corn plant response rating: Postemergence; for Plant response rating, Corn: Preemergence
Outline: as §1

[9] = tested on: foxtail, giant (giant foxtail, Setaria faberii); assay: Test A pre-/postemergence: foxtail, giant; details: for Foxtail, Giant plant response rating: Postemergence; for Plant response rating, Foxtail, Giant: Preemergence
Outline: as §1

[10] = tested on: sedge, umbrella (small-flower umbrella sedge, Cyperus difformis); assay: Test C flooded paddy test: sedge, umbrella; details: scale 0 to 100 (0 no effect, 100 complete control)
Outline: as §2

[11] = tested on: rice (Oryza sativa); assay: Test C flooded paddy test: rice; details: scale 0 to 100 (0 no effect, 100 complete control)
Outline: as §2

[12] = tested on: barnyardgrass (Echinochloa crus-galli); assay: Test A pre-/postemergence: barnyardgrass; details: for Barnyardgrass plant response rating: Postemergence; for Plant response rating, Barnyardgrass: Preemergence
Outline: as §1

[13] = 125 g ai/ha, 0 to 100 scale, 0 is no effect, 100 is complete control
[14] = 500 g ai/ha, visual rating on 0 to 100 scale (0 no effect, 100 complete control), approximately ten days
[15] = 125 g ai/ha, 0 to 100 scale (0 no effect, 100 complete control)
[16] = 500 g ai/ha, 0 to 100 scale, 0 is no effect, 100 is complete control
[17] = Flood (flooded paddy test), 62 g ai/ha, visual rating after 13 to 15 days
[18] = Flood (flooded paddy test), 250 g ai/ha, visual rating after 13 to 15 days
[19] = 125 g ai/ha, 0 to 100 scale where 0 is no effect and 100 is complete control
[20] = 500 g ai/ha, 0 to 100 scale (0 no effect, 100 complete control)
[21] = Flood (flooded paddy test), 125 g ai/ha, visual rating after 13 to 15 days

Cc1nn(-c2ccc(Cl)cc2)nc1Oc1ccnc(C(F)(F)F)c1 [Compound 52]
Velvetleaf plant response rating [1, 13]: 30 | Velvetleaf plant response rating [1, 14]: 100 | Plant response rating, Velvetleaf [1, 15]: 0 | Plant response rating, Velvetleaf [1, 16]: 10 | Crabgrass, Large plant response rating [2, 13]: 50 | Crabgrass, Large plant response rating [2, 14]: 100 | Plant response rating, Crabgrass, Large [2, 15]: 100 | Plant response rating, Crabgrass, Large [2, 16]: 100 | Morningglory plant response rating [3, 13]: 40 | Morningglory plant response rating [3, 14]: 100 | Plant response rating, Morningglory [3, 15]: 10 | Plant response rating, Morningglory [3, 16]: 20 | Plant response rating, Barnyardgrass [4, 17]: 40 | Plant response rating, Barnyardgrass [4, 18]: 75 | Wheat plant response rating [5, 13]: 10 | Wheat plant response rating [5, 14]: 20 | Plant response rating, Wheat [5, 15]: 0 | Plant response rating, Wheat [5, 16]: 0 | Pigweed plant response rating [6, 13]: 100 | Pigweed plant response rating [6, 14]: 100 | Plant response rating, Pigweed [6, 15]: 100 | Plant response rating, Ducksalad [7, 17]: 80 | Plant response rating, Ducksalad [7, 18]: 95 | Corn plant response rating [8, 13]: 10 | Corn plant response rating [8, 14]: 20 | Plant response rating, Corn [8, 15]: 0 | Plant response rating, Corn [8, 16]: 10 | Foxtail, Giant plant response rating [9, 13]: 50 | Foxtail, Giant plant response rating [9, 14]: 100 | Plant response rating, Foxtail, Giant [9, 15]: 100 | Plant response rating, Foxtail, Giant [9, 16]: 100 | Plant response rating, Sedge, Umbrella [10, 17]: 65 | Plant response rating, Sedge, Umbrella [10, 18]: 85 | Plant response rating, Rice [11, 17]: 15 | Plant response rating, Rice [11, 18]: 40 | Barnyardgrass plant response rating [12, 13]: 20 | Barnyardgrass plant response rating [12, 14]: 70 | Plant response rating, Barnyardgrass [12, 15]: 20 | Plant response rating, Barnyardgrass [12, 16]: 90

CCc1nn(-c2ccc(C(F)(F)F)cc2)nc1Cn1cc(C(F)(F)F)nc1Cl [Compound 122]
Velvetleaf plant response rating [1, 13]: 80 | Velvetleaf plant response rating [1, 14]: 100 | Plant response rating, Velvetleaf [1, 19]: 30 | Plant response rating, Velvetleaf [1, 20]: 60 | Crabgrass, Large plant response rating [2, 13]: 80 | Crabgrass, Large plant response rating [2, 14]: 90 | Plant response rating, Crabgrass, Large [2, 19]: 90 | Plant response rating, Crabgrass, Large [2, 20]: 100 | Morningglory plant response rating [3, 13]: 90 | Morningglory plant response rating [3, 14]: 100 | Plant response rating, Morningglory [3, 19]: 20 | Plant response rating, Morningglory [3, 20]: 50 | Plant response rating, Barnyardgrass [4, 21]: 40 | Plant response rating, Barnyardgrass [4, 18]: 40 | Plant response rating, Barnyardgrass ([4]; Flood, 31 g ai/ha): 10 | Plant response rating, Barnyardgrass ([4]; Flood, 62 g ai/ha): 20 | Wheat plant response rating [5, 13]: 20 | Wheat plant response rating [5, 14]: 30 | Plant response rating, Wheat [5, 19]: 0 | Plant response rating, Wheat [5, 20]: 20 | Pigweed plant response rating [6, 13]: 100 | Pigweed plant response rating [6, 14]: 100 | Plant response rating, Pigweed [6, 19]: 90 | Plant response rating, Pigweed [6, 20]: 100 | Plant response rating, Ducksalad [7, 21]: 60 | Plant response rating, Ducksalad [7, 18]: 65 | Plant response rating, Ducksalad ([7]; Flood, 31 g ai/ha): 0 | Plant response rating, Ducksalad ([7]; Flood, 62 g ai/ha): 0 | Corn plant response rating [8, 13]: 20 | Corn plant response rating [8, 14]: 30 | Plant response rating, Corn [8, 19]: 10 | Plant response rating, Corn [8, 20]: 20 | Foxtail, Giant plant response rating [9, 13]: 60 | Foxtail, Giant plant response rating [9, 14]: 90 | Plant response rating, Foxtail, Giant [9, 19]: 90 | Plant response rating, Foxtail, Giant [9, 20]: 100 | Plant response rating, Sedge, Umbrella [10, 21]: 85 | Plant response rating, Sedge, Umbrella [10, 18]: 85 | Plant response rating, Sedge, Umbrella ([10]; Flood, 31 g ai/ha): 70 | Plant response rating, Sedge, Umbrella ([10]; Flood, 62 g ai/ha): 75 | Plant response rating, Rice [11, 21]: 25 | Plant response rating, Rice [11, 18]: 30 | Plant response rating, Rice ([11]; Flood, 31 g ai/ha): 0 | Plant response rating, Rice ([11]; Flood, 62 g ai/ha): 0 | Barnyardgrass plant response rating [12, 13]: 40 | Barnyardgrass plant response rating [12, 14]: 70 | Plant response rating, Barnyardgrass [12, 19]: 20 | Plant response rating, Barnyardgrass [12, 20]: 70

Cc1nn(-c2cccc(C(F)(F)F)c2)nc1Oc1cccc(C(F)(F)F)c1 [Compound 70]
Velvetleaf plant response rating [1, 13]: 10 | Velvetleaf plant response rating [1, 14]: 50 | Plant response rating, Velvetleaf [1, 15]: 0 | Plant response rating, Velvetleaf [1, 16]: 0 | Crabgrass, Large plant response rating [2, 13]: 10 | Crabgrass, Large plant response rating [2, 14]: 30 | Plant response rating, Crabgrass, Large [2, 15]: 0 | Plant response rating, Crabgrass, Large [2, 16]: 40 | Morningglory plant response rating [3, 13]: 10 | Morningglory plant response rating [3, 14]: 20 | Plant response rating, Morningglory [3, 15]: 0 | Plant response rating, Morningglory [3, 16]: 0 | Plant response rating, Barnyardgrass [4, 17]: 0 | Plant response rating, Barnyardgrass [4, 21]: 0 | Plant response rating, Barnyardgrass [4, 18]: 0 | Plant response rating, Barnyardgrass ([4]; Flood, 31 g ai/ha): 0 | Wheat plant response rating [5, 13]: 0 | Wheat plant response rating [5, 14]: 10 | Plant response rating, Wheat [5, 15]: 0 | Plant response rating, Wheat [5, 16]: 0 | Pigweed plant response rating [6, 13]: 40 | Pigweed plant response rating [6, 14]: 100 | Plant response rating, Pigweed [6, 15]: 0 | Plant response rating, Pigweed [6, 16]: 10 | Plant response rating, Ducksalad [7, 17]: 0 | Plant response rating, Ducksalad [7, 21]: 0 | Plant response rating, Ducksalad [7, 18]: 0 | Plant response rating, Ducksalad ([7]; Flood, 31 g ai/ha): 0 | Corn plant response rating [8, 13]: 10 | Corn plant response rating [8, 14]: 20 | Plant response rating, Corn [8, 15]: 0 | Plant response rating, Corn [8, 16]: 0 | Foxtail, Giant plant response rating [9, 13]: 10 | Foxtail, Giant plant response rating [9, 14]: 20 | Plant response rating, Foxtail, Giant [9, 15]: 0 | Plant response rating, Foxtail, Giant [9, 16]: 50 | Plant response rating, Sedge, Umbrella [10, 17]: 0 | Plant response rating, Sedge, Umbrella [10, 21]: 0 | Plant response rating, Sedge, Umbrella [10, 18]: 0 | Plant response rating, Sedge, Umbrella ([10]; Flood, 31 g ai/ha): 0 | Plant response rating, Rice [11, 17]: 0 | Plant response rating, Rice [11, 21]: 0 | Plant response rating, Rice [11, 18]: 0 | Plant response rating, Rice ([11]; Flood, 31 g ai/ha): 0 | Barnyardgrass plant response rating [12, 13]: 0 | Barnyardgrass plant response rating [12, 14]: 10 | Plant response rating, Barnyardgrass [12, 15]: 0 | Plant response rating, Barnyardgrass [12, 16]: 0

Cc1nn(-c2ccc(F)cc2)nc1Cn1cnc(C(F)(F)F)c1Cl [Compound 36]
Velvetleaf plant response rating [1, 13]: 0 | Velvetleaf plant response rating [1, 14]: 10 | Plant response rating, Velvetleaf [1, 15]: 0 | Plant response rating, Velvetleaf [1, 16]: 0 | Crabgrass, Large plant response rating [2, 13]: 0 | Crabgrass, Large plant response rating [2, 14]: 0 | Plant response rating, Crabgrass, Large [2, 15]: 0 | Plant response rating, Crabgrass, Large [2, 16]: 10 | Morningglory plant response rating [3, 13]: 0 | Morningglory plant response rating [3, 14]: 0 | Plant response rating, Morningglory [3, 15]: 0 | Plant response rating, Morningglory [3, 16]: 0 | Plant response rating, Barnyardgrass [4, 17]: 0 | Plant response rating, Barnyardgrass [4, 21]: 0 | Plant response rating, Barnyardgrass [4, 18]: 0 | Plant response rating, Barnyardgrass ([4]; Flood, 31 g ai/ha): 0 | Wheat plant response rating [5, 13]: 0 | Wheat plant response rating [5, 14]: 0 | Plant response rating, Wheat [5, 15]: 0 | Plant response rating, Wheat [5, 16]: 0 | Pigweed plant response rating [6, 13]: 0 | Pigweed plant response rating [6, 14]: 20 | Plant response rating, Pigweed [6, 15]: 0 | Plant response rating, Pigweed [6, 16]: 0 | Plant response rating, Ducksalad [7, 17]: 0 | Plant response rating, Ducksalad [7, 21]: 0 | Plant response rating, Ducksalad [7, 18]: 0 | Plant response rating, Ducksalad ([7]; Flood, 31 g ai/ha): 0 | Corn plant response rating [8, 13]: 0 | Corn plant response rating [8, 14]: 0 | Plant response rating, Corn [8, 15]: 0 | Plant response rating, Corn [8, 16]: 0 | Foxtail, Giant plant response rating [9, 13]: 0 | Foxtail, Giant plant response rating [9, 14]: 0 | Plant response rating, Foxtail, Giant [9, 15]: 0 | Plant response rating, Foxtail, Giant [9, 16]: 0 | Plant response rating, Sedge, Umbrella [10, 17]: 0 | Plant response rating, Sedge, Umbrella [10, 21]: 0 | Plant response rating, Sedge, Umbrella [10, 18]: 0 | Plant response rating, Sedge, Umbrella ([10]; Flood, 31 g ai/ha): 0 | Plant response rating, Rice [11, 17]: 0 | Plant response rating, Rice [11, 21]: 0 | Plant response rating, Rice [11, 18]: 0 | Plant response rating, Rice ([11]; Flood, 31 g ai/ha): 0 | Barnyardgrass plant response rating [12, 13]: 0 | Barnyardgrass plant response rating [12, 14]: 0 | Plant response rating, Barnyardgrass [12, 15]: 0 | Plant response rating, Barnyardgrass [12, 16]: 0
